Results: patent US5753648A, “Tricyclic benzazepine vasopressin antagonists” (American Cyanamid Company, priority 1996, dated 1998)
pIC50: −log10 of the molar value.

What was measured:
[1] = system: Endogenous Arginine Vasopressin Antidiuretic (V2) Response in Conscious Rats; experiment: Antagonism of Endogenous Arginine Vasopressin Antidiuretic (V2) Response in Conscious Rats (urine volume); assay type: in vivo, rat (Sprague-Dawley); settings: 10 mg/kg rat p.o.; 4 hour collection
Text: Effects on the Antagonism of Endogenous Arginine Vasopressin Antidiuretic (V2) Response in Conscious Rats with Free Access to Water Drinking Before but not During the Experiment:
Male or female normotensive Sprague-Dawley rats (Charles River Laboratories, Inc., Kingston, N.Y.) of 400-450 g body weight were supplied with Laboratory Rodent Feed #5001 (PMI Feeds, Inc., Richmond, Id.) and water ad libitum. On the day of test, rats were placed individually into metabolic cages equipped with stainless steel screens (to separate the feces from the urine) and funnels for collection of urine. Vehicle or reference agent was given at various oral doses. During the test, rats were not provided with water or food. Urine was collected for four hours after dosing of the test compound. At the end of four hours, urine volume was measured. Urinary osmolality was determined using a Fiske One-Ten Osmometer (Fiske Associates, Norwood, Mass. 02062) or an Advanced CRYOMATIC Osmometer, Model 3C2 (Advanced Instruments, Norwood, Mass.). Determinations of Na^+, K^+ and Cl^- ion were carried out using ion specific electrodes in a Beckman SYNCHRON EL-ISE Electrolyte System analyzer. In the following results, increased urine volume and decreased osmolality relative to AVP-control indicates activity.

[2] = biological target: Rat Hepatic V1 Receptors (Rattus norvegicus, UniProt P30560); experiment: Binding Assay to Rat Hepatic V1 Receptors
Experimental: Binding Assay to Rat Hepatic V1 Receptors
Rat liver plasma membranes expressing the vasopressin V1 receptor subtypes are isolated by sucrose density gradient according to the method described by Lesko et al, (1973). These membranes are quickly suspended in 50.0 mM Tris.HCl buffer, pH 7.4, containing 0.2% bovine serum albumin (BSA) and 0.1 mM phenylmethylsulfonylfluoride (PMSF) and kept frozen at -70° C. until used in subsequent binding experiments. For binding experiments, the following is added to the wells of a ninety-six well format microtiter plate: 100 μl of 100.0 mM Tris.HCl buffer containing 10.0 mM MgCl2, 0.2% heat inactivated BSA and a mixture of protease inhibitors: leupeptin, 1.0 mg %; aprotinin, 1.0 mg %; 1,10-phenanthroline,2.0 mg %; trypsin inhibitor, 10.0 mg % and 0.1 mM PMSF, 20.0 μl of [phenylalanyl-3,4,5,-^3 H] vaso-pressin (S.A. 45.1 Ci/mmole) at 0.8 nM, and the reaction initiated by the addition of 80 μl of tissue membranes containing 20 μg of tissue protein. The plates are kept undisturbed on the bench top at room temperature for 120 min. to reach equilibrium. Non-specific samples are assayed in the presence of 0.1 μm of the unlabeled antagonist phenylalanylvasopressin, added in 20.0 μl volume. For test compounds, these are solubilized in 50% dimethylsulfoxide (DMSO) and added in 20.0 μl volume to a final incubation volume of 200 μl. Upon completion of binding, the content of each well is filtered off, using a Brandel® cell Harvester (Gaithersburg, Md.). The radioactivity trapped on the filter disk by the ligand-receptor complex is assessed by liquid scintillation counting in a Packard LS Counter, with an efficiency of 65% for tritium. The data are analyzed for IC50 values by the LUNDON-2 program for competition (LUNDON SOFTWARE, Ohio).

[3] = biological target: T1, Rat Kidney Medullary V2 Receptors (Rattus norvegicus, UniProt Q00788); experiment: biochemical; assay type: binding
T1 construct: Medullary tissues from rat kidneys are dissected out; from tissue; host or cells: rat kidney medulla membranes
Experimental: Binding Assay to Rat Kidney Medullary V2 Receptors
Medullary tissues from rat kidneys are dissected out, cut into small pieces and soaked in a […] sodium chloride solution containing 1.0 mM EDTA with many changes of the liquid phase, until the solution is clear of blood. The tissue is homogenized in a 0.25M sucrose solution containing 1.0 mM EDTA and 0.1 mM PMSF using a Potter-Elvehjem homogenizer with a teflon pestle. The homogenate is filtered through several layers (4 layers) of cheese cloth. The filtrate is rehomogenized using a dounce homogenizer, with a tight fitting pestle. The final homogenate is centrifuged at 1500×g for 15 min. The nuclear pellet is discarded and the supernatant fluid recentrifuged at 40,000×g for 30 min. The resulting pellet formed contains a dark inner part with the exterior, slightly pink. The pink outer part is suspended in a small amount of 50.0 mM Tris.HCl buffer, pH 7.4. The protein content is determined by the Lowry's method (Lowry et al, J. Biol. Chem., 1953). The membrane suspension is stored at -70° C., in 50.0 mM Tris.HCl, containing 0.2% inactivated BSA and 0.1 mM PMSF in aliquots of 1.0 ml containing 10.0 mg protein per ml of suspension until use in subsequent binding experiments.
For binding experiments, the following is added in μl volume to wells of a 96 well format of a microtiter plate: 100.0 μl of 100.0 mM Tris.HCl buffer containing 0.2% heat inactivated BSA, 10.0 mM MgCl2 and a mixture of protease inhibitors: leupeptin, 1.0 mg %; aprotinin, 1.0 mg %; 1,10-phenanthroline, 2.0 mg %; trypsin inhibitor, 10.0 mg % and 0.1 mM PMSF, 20.0 μl of [^3 H] Arginine^8, vasopressin (S.A. 75.0 Ci/mmole) at 0.8 nM and the reaction initiated by the addition of 80.0 μl of tissue membranes (200.0 μg tissue protein). The plates are left undisturbed on the bench top for 120 min. to reach equilibrium. Non-specific binding is assessed in the presence of 1.0 μM of unlabeled ligand, added in 20 μl volume. For test compounds, these are solubilized in 50% dimethylsulfoxide (DMSO) and added in 20.0 μl volume to a final incubation volume of 200 μl. Upon completion of binding, the content of each well is filtered off, using a Brandel® cell Harvester (Gaithersburg, Md.). The radioactivity trapped on the filter disk by the ligand-receptor complex is assessed by liquid scintillation counting in a Packard LS Counter, with an efficiency of 65% for tritium. The data are analyzed for IC50 values by the LUNDON-2 program for competition (LUNDON SOFTWARE, Ohio).

[4] = biological target: T2, oxytocin receptors (Rattus norvegicus, UniProt P70536); experiment: Oxytocin Receptor Binding; settings: for pIC50: rat uterine membranes, [3H]oxytocin
T2 sequence (P70536 1-388): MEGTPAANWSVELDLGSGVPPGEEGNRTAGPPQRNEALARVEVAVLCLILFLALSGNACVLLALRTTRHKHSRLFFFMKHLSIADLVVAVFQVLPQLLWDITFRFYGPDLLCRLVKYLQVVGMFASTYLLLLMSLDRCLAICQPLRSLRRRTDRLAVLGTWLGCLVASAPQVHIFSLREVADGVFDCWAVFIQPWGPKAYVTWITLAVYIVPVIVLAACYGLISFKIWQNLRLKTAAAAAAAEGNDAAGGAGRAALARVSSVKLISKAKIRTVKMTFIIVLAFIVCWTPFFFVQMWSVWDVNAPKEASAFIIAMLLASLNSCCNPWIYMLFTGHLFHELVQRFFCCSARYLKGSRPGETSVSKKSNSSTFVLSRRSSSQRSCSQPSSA
Experimental: Female Sprague-Dawley rats weighing approximately 200-250 g are injected intramuscularly (i.m.) with 0.3 mg/kg of body weight of diethylstilbestrol (DES). The rats are sacrificed 18 hours later under pentobarbital anesthesia. The uteri are dissected out, cleaned of fat and connective tissues and rinsed in 50 ml of normal saline. The tissue pooled from six rats is homogenized in 50 ml of 0.01 mM Tris.HCl, containing 0.5 mM dithiothreitol and 1.0 mM EDTA, adjusted to pH 7.4, using a polytron at setting 6 with three passes of 10 sec each. The homogenate is passed through two (2) layers of cheesecloth and the filtrate centrifuged at 1000×g for 10 min. The clear supernatant is removed and recentrifuged at 165,000×g for 30 min. The resulting pellet containing the oxytocin receptors is resuspended in 50.0 mM Tris.HCl containing 5.0 mM MgCl2 at pH 7.4, to give a protein concentration of 2.5 mg/ml of tissue suspension. This preparation is used in subsequent binding assays with [^3 H]Oxytocin.
Binding of 3,5-[^3 H]Oxytocin ([^3 H]OT) to its receptors is done in microtiter plates using [^3 H]OT, at various concentrations, in an assay buffer of 50.0 mM Tris.HCl, pH 7.4 and containing 5.0 mM MgCl2, and a mixture of protease inhibitors: BSA, 0.1 mg; aprotinin, 1.0 mg; 1,10-phenanthroline, 2.0 mg; trypsin, 10.0 mg; and PMSF, 0.3 mg per 100 ml of buffer solution. Non-specific binding is determined in the presence of 1.0 uM unlabeled OT. The binding reaction is terminated after 60 min., at 220° C., by rapid filtration through glass fiber filters using a Brandel® cell harvester (Bio-medical Research and Development Laboratories, Inc., Gaithersburg, Md.). Competition experiments are conducted at equilibrium using 1.0 nM [^3 H]OT and varying the concentration of the displacing agents. The concentrations of agent displacing 50% of [^3 H]OT at its sites (IC50) are calculated by a computer assisted LUNDON-2 program (LUNDON SOFTWARE INC., Ohio, USA).

T1 sequence (Q00788 whole entry): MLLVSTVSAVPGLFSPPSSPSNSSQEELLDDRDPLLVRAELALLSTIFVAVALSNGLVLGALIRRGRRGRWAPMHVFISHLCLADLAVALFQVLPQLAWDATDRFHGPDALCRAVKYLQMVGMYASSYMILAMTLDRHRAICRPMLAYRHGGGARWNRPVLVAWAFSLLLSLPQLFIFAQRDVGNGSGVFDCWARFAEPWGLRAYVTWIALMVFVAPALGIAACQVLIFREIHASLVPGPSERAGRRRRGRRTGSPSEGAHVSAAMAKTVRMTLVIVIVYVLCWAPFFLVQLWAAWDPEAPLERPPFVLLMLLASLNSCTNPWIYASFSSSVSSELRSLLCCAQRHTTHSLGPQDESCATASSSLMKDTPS
Chain of Rat Hepatic V1 Receptors (P30560 whole entry): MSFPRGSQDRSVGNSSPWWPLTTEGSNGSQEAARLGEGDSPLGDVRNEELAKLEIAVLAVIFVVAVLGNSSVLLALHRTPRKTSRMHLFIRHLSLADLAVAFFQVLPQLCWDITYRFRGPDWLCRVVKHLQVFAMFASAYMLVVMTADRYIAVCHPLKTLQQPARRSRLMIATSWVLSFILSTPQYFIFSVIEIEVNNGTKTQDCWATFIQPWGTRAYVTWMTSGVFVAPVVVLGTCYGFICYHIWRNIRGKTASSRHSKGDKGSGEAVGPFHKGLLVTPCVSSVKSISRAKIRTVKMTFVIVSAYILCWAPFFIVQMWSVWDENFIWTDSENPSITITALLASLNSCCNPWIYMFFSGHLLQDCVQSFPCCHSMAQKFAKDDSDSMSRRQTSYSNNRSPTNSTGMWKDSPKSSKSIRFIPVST

SMILES	Urine Volume [1]	pIC50 [2]	pIC50 [3]	inhibition at 10 µM [4]	pIC50 [4]	inhibition at 1 µM ([4]; dose 1 μM)
CN(C)C1CCN(Cc2ccc3n2Cc2ccccc2N(C(=O)c2ccc(NC(=O)c4ccccc4-c4ccccc4)cc2Cl)C3)CC1 [Example 376, {3-chloro-4-[3-(4-dimethylamino-piperidine-1-ylmethyl)-5H,11H-pyrrolo[2,1-c][1,4]benzodiazepine-10-carbonyl]-phenyl}-biphenyl-2-carboxylic acid amide]	23.8 ml/4 hrs	–	–	–	–	–
O=C(Nc1ccc(C(=O)N2Cc3ccc(CN4CCC(N5CCCCC5)CC4)n3Cc3ccccc32)c(Cl)c1)c1ccccc1-c1ccccc1 [Example 373, [4-(3-[1,4]Bipiperidinyl-1'-ylmethyl-5H,11H-pyrrolo[2,1-c][1,4]benzodiazepine-10-carbonyl)-3-chloro-phenyl]-biphenyl-2-carboxylic acid amide]	15.6 ml/4 hrs	–	–	–	–	–
CN(C)c1ncccc1C(=O)Nc1ccc(C(=O)N2Cc3cccn3Cc3ccccc32)cc1 [Example 338, N-[4-(5H-Pyrrolo[2,1-c][1,4]benzodiazepin-10(11H)-ylcarbonyl)phenyl]-2-(dimethylamino)-pyridine-3-carboxamide]	–	7.43	8.32	98%	6.14	–
O=C(c1ccc(NC2CCc3ccccc32)nc1)N1Cc2cccn2Cc2ccccc21 (centres unmarked) [Example 350, 10-[[6-(1-Indanylamino)-3-pyridinyl)carbonyl]-10,11-dihydro-5H-pyrrolo[2,1-c][1,4]benzodiazepine]	–	7.82	7.47	95%	6.69	–
O=C(Nc1ccc(C(=O)N2Cc3ccc(CNC(CO)(CO)CO)n3Cc3ccccc32)c(Cl)c1)c1ccccc1-c1ccccc1 [Example 374, (3-Chloro-4-{3-[(2-hydroxy-1,1-bis-hydroxymethylethylamino)-methyl]-5H,11H-pyrrolo[2,1-c][1,4]benzodiazepine-10-carbonyl}-phenyl)-biphenyl-2-carboxylic acid amide]	16.5 ml/4 hrs	–	–	–	–	–
O=C(Nc1ccc(C(=O)N2Cc3cccn3Cc3ccccc32)cn1)c1ccccc1Cl [Example 6]	–	7.96	8.74	–	6.85	90%
CN(C)CCN(C)Cc1ccc2n1Cc1ccccc1N(C(=O)c1ccc(NC(=O)c3ccccc3-c3ccccc3)cc1Cl)C2 [Example 375]	44.2 ml/4 hrs	–	–	–	–	–
O=C(c1ccc(NCC2CCCCC2)nc1)N1Cc2cccn2Cc2ccccc21 [Example 263]	–	6.70	6.44	98%	6.42	–
